The text below walks through data of patent publication US9796753B2, “N-substituted indenoisoquinolines and syntheses thereof” (Purdue Research Foundation, priority 2005, dated 2017).

Like-named read-outs stand apart in the source and are kept apart here.

By melting point is commonly meant the temperature, or range, at which the solid turns liquid.

One series deals with breast MDA-MB-435. Description: COMPARE screening (NCI human cancer cell line screen), cytotoxicity GI50. It is filed as cell-based. The settings on record: Homo sapiens.
A further series relates to melanoma UACC-62. The description is as above. The class given is cell-based. The method in brief:
(§1)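 Read-out is sulforhodamine B optical density, expressed as a ratio to untreated control and plotted as percentage growth against log10 compound concentration. Exposure lasted 48 h at five concentrations from 100 to 0.01 μM in the NCI60 screen.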

In the next series the test system is renal SN12C. The series is described as above. It is filed as cell-based. The method in brief:
as §1

In the next series the test system is colon HCT-116. The series is described as above. The class given is cell-based. In outline:
as §1

The test system of the next series is lung HOP-62. Described as above. The class given is cell-based. In outline:
as §1

For another series, the system named is prostate DU-145. The description is as above. It is filed as cell-based. The method in brief: as §1
For another series, the system named is CNS SF-539. The series is described as above. The class given is cell-based. The method in brief:
as §1

A further series deals with ovarian OVCAR-3. Described as above. It is filed as cell-based. In outline: as §1
Series [1] concerns all human cancer cell lines successfully tested. The series can be described thus: NCI screen mean graph midpoint (MGM) for growth inhibition. It is filed as cell-based. The method in brief: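 NCI60 panel cells exposed to compound at 100, 10, 1, 0.1 and 0.01 μM for 48 h, then sulforhodamine B staining. Percentage growth versus control plotted against log concentration; MGM is the midpoint across all lines tested.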

Another series concerns breast MCF-7. Description: NCI60 antiproliferative activity, cytotoxicity GI50. The class given is cell-based, human. As to the method:
Selected compounds were tested for antiproliferative activity in the National Cancer Institute's developmental therapeutics assay 60 cell line screen (NCI60). The cells were incubated with the tested compounds at 100, 10, 1, 0.1, and 0.01 μM concentrations for 48 h before treatment with sulforhodamine B dye. Optical densities were recorded, and their ratios relative to that of the control were plotted as percentage growth against the log 10 of the tested compound concentrations.

[2] abbreviates: MDA-MB-435, read-out: cytotoxicity (GI50) breast MDA-MB-435.
[3] abbreviates: Homo sapiens, UACC-62, read-out: cytotoxicity (GI50) melanoma UACC-62.
Where [4] appears, read: Homo sapiens, SN12C, read-out: cytotoxicity (GI50) renal SN12C.
Setting [5] is: Homo sapiens, HCT-116, read-out: cytotoxicity (GI50) colon HCT-116.
The mark [6] stands for this setting: Homo sapiens, HOP-62, read-out: cytotoxicity (GI50) lung HOP-62.
The mark [7] stands for this setting: Homo sapiens, DU-145, read-out: cytotoxicity (GI50) prostate DU-145.
Setting [8] is: Homo sapiens, CNSSF-539, read-out: cytotoxicity (GI50) CNS SF-539.
Setting [9] is: Homo sapiens, OVCAR-3, read-out: cytotoxicity (GI50) ovarian OVCAR-3.
[10] abbreviates: Table 1, average GI50 of all cell lines tested (approximately 55), test range 10^−8 to 10^−4 molar.

Method for breast MDA-MB-435: COMPARE screening. The compounds described herein were examined for antiproliferative activity against the human cancer cell lines in the National Cancer Institute screen (COMPARE screening), in which the activity of each compound was evaluated with approximately 55 different cancer cell lines of diverse tumor origins. […] Therefore, the MGM value represents an overall assessment of toxicity of the compound across numerous cell lines.

`Cl.NCCCCCCCCn1c2c(c3ccccc3c1=O)C(=O)c1ccccc1-2` [Compound 5ar, 6-(8-Aminooctyl)-5,6-dihydro-5,11-dioxo-11H-indeno[1,2-c]isoquinoline Hydrochloride] displayed a melting point of 182 to 185 °C. Besides, the GI50 in the series on breast MDA-MB-435 (setting [2]) came to 5.62 µM. Moreover, the GI50 with melanoma UACC-62 (setting [3]) was determined as 3.8 µM. For the same molecule, in the series with renal SN12C (setting [4]), the GI50 was 3.47 µM. Moreover, the GI50 with colon HCT-116 (setting [5]) stood at 1.66 µM. In addition, the GI50 in the series on lung HOP-62 (setting [6]) is 2.14 µM. Moreover, the GI50 in the series with prostate DU-145 (setting [7]) was 3.39 µM. In addition, in the series on CNS SF-539 (setting [8]), the GI50 came out at 2.82 µM. For the same molecule, the GI50 in the series with ovarian OVCAR-3 (setting [9]) came out at 3.47 µM. In series [1] (setting [10]), this molecule returned an MGM (mean GI50 across cell lines) of 3.71 µM.

Regarding `Cl.NCCCCCCCCCn1c2c(c3ccccc3c1=O)C(=O)c1ccccc1-2` [Compound 5as, 6-(9-Aminononyl)-5,6-dihydro-5,11-dioxo-11H-indeno[1,2-c]isoquinoline Hydrochloride], the melting point fell in the range of 204 to 207 °C. Moreover, in the series with breast MDA-MB-435 (setting [2]), the GI50 is 9.55 µM. Also, in the series on melanoma UACC-62 (setting [3]), the GI50 was found to be 9.33 µM. In the series with renal SN12C (setting [4]), the GI50 stood at 8.51 µM. For the same molecule, in the series on colon HCT-116 (setting [5]), the GI50 is 6.46 µM. In addition, in the series on lung HOP-62 (setting [6]), the GI50 stood at 6.76 µM. Further, the GI50 in the series on prostate DU-145 (setting [7]) came to 6.03 µM. In addition, the GI50 in the series with CNS SF-539 (setting [8]) worked out at 9.77 µM. Moreover, the GI50 with ovarian OVCAR-3 (setting [9]) turned out to be 9.55 µM. This molecule registered an MGM (mean GI50 across cell lines) in series [1] (setting [10]) of 8.13 µM.

As to `Cl.NCCCCCCCCCCn1c2c(c3ccccc3c1=O)C(=O)c1ccccc1-2` [Compound 5at, 6-(10-Aminodecyl)-5,6-dihydro-5,11-dioxo-11H-indeno[1,2-c]isoquinoline Hydrochloride], the melting point was 189 to 192 °C. Moreover, in the series on breast MDA-MB-435 (setting [2]), the GI50 was determined as 11.7 µM. Moreover, the GI50 with melanoma UACC-62 (setting [3]) was 13.8 µM. In addition, in the series on renal SN12C (setting [4]), the GI50 stood at 3.31 µM. Further, the GI50 in the series with colon HCT-116 (setting [5]) is 2.75 µM. In the series with lung HOP-62 (setting [6]), the GI50 stood at 4.79 µM. Also, in the series with prostate DU-145 (setting [7]), the GI50 stood at 3.47 µM. Also, in the series on CNS SF-539 (setting [8]), the GI50 amounted to 1.82 µM. The GI50 in the series on ovarian OVCAR-3 (setting [9]) amounted to 10.7 µM. The molecule also had an MGM (mean GI50 across cell lines) in series [1] (setting [10]) of 5.50 µM.

In turn, `Cl.NCCCCCCCCCCCn1c2c(c3ccccc3c1=O)C(=O)c1ccccc1-2` [Compound 5au, 6-(11-Aminoundecyl)-5,6-dihydro-5,11-dioxo-11H-indeno[1,2-c]isoquinoline Hydrochloride] came in with a melting point of 125 to 129 °C. Further, the GI50 in the series with breast MDA-MB-435 (setting [2]) stood at 11 µM. Further, the GI50 with melanoma UACC-62 (setting [3]) came out at 1.7 µM. Moreover, the GI50 in the series with renal SN12C (setting [4]) came out at 2 µM. In addition, the GI50 in the series on colon HCT-116 (setting [5]) is 1.91 µM. For the same molecule, the GI50 in the series on lung HOP-62 (setting [6]) was determined as 2.19 µM. In the series with prostate DU-145 (setting [7]), the GI50 was 4.57 µM. Besides, the GI50 with CNS SF-539 (setting [8]) came to 2.04 µM. For the same molecule, in the series on ovarian OVCAR-3 (setting [9]), the GI50 amounted to 2.09 µM. In series [1] (setting [10]), this molecule gave an MGM (mean GI50 across cell lines) of 5.13 µM.

In the case of `COc1cc2c(=O)n(CCCN3CCOCC3)c3c(c2cc1O)C(=O)c1cc2c(cc1-3)OCO2` [Compound 18], the GI50 in the series on breast MCF-7 turned out to be 0.1 µM; with melanoma UACC-62 it was 0.3 µM; in the series on renal SN12C it was 0.2 µM; in the series with colon HCT-116, 0.39 µM; in the series on lung HOP-62, 0.3 µM; in the series with prostate DU-145, 0.3 µM. The GI50 in the series on CNS SF-539 was 0.3 µM; in the series on ovarian OVCAR-3, 0.9 µM. Besides, in series [1] (Table 6, all human cancer cell lines successfully tested, range 10^−8 to 10^−4 molar, with standard error), the MGM (mean GI50 across cell lines) is 0.4 ± 0.005 µM.

For `CC[C@@]1(O)C(=O)OCc2c1cc1n(c2=O)Cc2cc3ccccc3nc2-1` [Compound S-1, camptothecin, reference compound], the GI50 turned out to be 0.01 µM in the series with breast MCF-7 (Homo sapiens, MCF7, Table 6, NCI60, 48 h, sulforhodamine B, read-out: Cytotoxicity (GI50) breast MCF-7); 0.04 µM in the series with breast MDA-MB-435 (MDA-MB-435, Table 1, concentration corresponding to 50% growth inhibition, read-out: cytotoxicity (GI50) breast MDA-MB-435); 0.04 µM with breast MDA-MB-435 (breast MDA-MB-435, concentration corresponding to 50% growth inhibition, read-out: cytotoxicity (GI50 in μM) breast MDA-MB-435); 0.01 µM with melanoma UACC-62 (Homo sapiens, UACC-62, Table 1, concentration corresponding to 50% growth inhibition, read-out: cytotoxicity (GI50) melanoma UACC-62); 0.01 µM in the series on melanoma UACC-62 (Homo sapiens, UACC-62, Table 6, NCI60, 48 h, sulforhodamine B, read-out: Cytotoxicity (GI50) melanoma UACC-62); 0.01 µM with melanoma UACC-62 (Homo sapiens, melanoma UACC-62, concentration corresponding to 50% growth inhibition, read-out: cytotoxicity (GI50 in μM) melanoma UACC-62). For the same molecule, the GI50 stood at 0.02 µM with renal SN12C (Homo sapiens, SN12C, Table 1, concentration corresponding to 50% growth inhibition, read-out: cytotoxicity (GI50) renal SN12C); 0.02 µM in the series with renal SN12C (Homo sapiens, SN12C, Table 6, NCI60, 48 h, sulforhodamine B, read-out: Cytotoxicity (GI50) renal SN12C); 0.02 µM with renal SN12C (Homo sapiens, renal SN12C, concentration corresponding to 50% growth inhibition, read-out: cytotoxicity (GI50 in μM) renal SN12C); 0.03 µM in the series on colon HCT-116 (Homo sapiens, HCT-116, Table 1, concentration corresponding to 50% growth inhibition, read-out: cytotoxicity (GI50) colon HCT-116); 0.03 µM in the series on colon HCT-116 (Homo sapiens, HCT-116, Table 6, NCI60, 48 h, sulforhodamine B, read-out: Cytotoxicity (GI50) Colon HCT-116); 0.03 µM in the series on colon HCT-116 (Homo sapiens, colon HCT-116, concentration corresponding to 50% growth inhibition, read-out: cytotoxicity (GI50 in μM) colon HCT-116). Further, the GI50 with lung HOP-62 (Homo sapiens, HOP-62, Table 1, concentration corresponding to 50% growth inhibition, read-out: cytotoxicity (GI50) lung HOP-62) turned out to be 0.01 µM; with lung HOP-62 (Homo sapiens, HOP-62, Table 6, NCI60, 48 h, sulforhodamine B, read-out: Cytotoxicity (GI50) lung HOP-62) it was 0.01 µM; with lung HOP-62 (Homo sapiens, lung HOP-62, concentration corresponding to 50% growth inhibition, read-out: cytotoxicity (GI50 in μM) lung HOP-62) it was 0.01 µM; with prostate DU-145 (Homo sapiens, DU-145, Table 1, concentration corresponding to 50% growth inhibition, read-out: cytotoxicity (GI50) prostate DU-145) it was 0.01 µM; with prostate DU-145 (Homo sapiens, DU-145, Table 6, NCI60, 48 h, sulforhodamine B, read-out: Cytotoxicity (GI50) prostate DU-145), 0.01 µM; in the series with prostate DU-145 (Homo sapiens, prostate DU-145, concentration corresponding to 50% growth inhibition, read-out: cytotoxicity (GI50 in μM) prostate DU-145), 0.01 µM. The GI50 in the series with CNS SF-539 (Homo sapiens, CNSSF-539, CNS SF-539, concentration corresponding to 50% growth inhibition, read-out: cytotoxicity (GI50 in μM) CNS SF-539) amounted to 0.01 µM; in the series with CNS SF-539 (Homo sapiens, CNSSF-539, Table 1, concentration corresponding to 50% growth inhibition, read-out: cytotoxicity (GI50) CNS SF-539) it was 0.01 µM; in series [1] (Homo sapiens, read-out: MGM GI50), 0.0405 ± 0.0187 µM; in series [1] (all human cancer cell lines successfully tested, read-out: MGM (mean graph midpoint for growth inhibition)), 0.0405 ± 0.0187 µM. Moreover, in series [1] (setting [10]), the “MGM (mean graph midpoint for growth inhibition)” value is “.0405 ± 0.0187 µM”.
